Data set [1] deals with HeLa cells. Kind of data set: MTT assay of cell viability / anti-proliferative activity. It counts as cell-based. For orientation: Formazan colour is commonly taken as a measure of viable cells.
The test system of data set [2] is HeLa cells. In words: Mitochondrial membrane potential with JC-10 dye. The following applies: 20 μM.

Take `COC1=C2C[C@@H](C)C[C@H](OC)[C@H](O)[C@@H](C)/C=C(\C)[C@H](OC(N)=O)[C@@H](OC)/C=C\C=C(/C)C(=O)NC(=CC1=O)C2=O` [GA, Geldanamycin]: in the data set with HeLa cells [1] (HeLa cells), the “inhibitor concentration at which maximum inhibition was reached” value is 0.3 µM. The “maximum inhibition in HeLa cell viability” value in the data set with HeLa cells [1] (at saturating concentrations) is ~ 40%.

Turning to “p-trifluoromethoxy carbonyl cyanide phenyl hydrazone [FCCP]”, the “increase of F520/F590 ratio above the normal value” in the data set with HeLa cells [2] was “up to 7 fold”.

Source of the values: publication PMC6558518 (Angewandte Chemie (International ed. in English), 2018).
